Data reported in patent publication US20240285501A1, “HAIR GROWTH AGENT” (ADJUVANT HOLDINGS CO., LTD., priority 2021, published 2024).

Legend:
[1] = system: VEGF gene expression in human dermal papilla cells; test: Evaluation of human dermal papilla cell VEGF gene expression (real-time PCR); type: cell-based; details: 72 hours, relative to negative control group, GAPDH internal standard, FIG. 1
Protocol: The VEGF gene is expressed in dermal papilla cells, and contributes to expression of such effects as increase in hair shaft diameter and improving maximum hair shaft length and improving hair shaft elongation rate and hair shaft growth promotion at head hair, beard, eyebrows, and/or eyelashes. Human dermal papilla cells were therefore used, and evaluation was carried out with respect to increase in VEGF gene expression for the respective components.
Human dermal papilla cells (Catalog No. CA60205a; derived from person; Toyobo Co., Ltd. (Japan)) were purchased, testing and evaluation being carried out with maintenance and culture of cells being performed as described in the protocol.
As drugs for testing, drug solutions of the following respective concentrations (final concentrations) were prepared and used. • Comparative Example 1: 100 μM adenosine • Working Example 1: 0.3125 μM phytosphingosine • Working Example 2: 1.25 μM phytosphingosine • Working Example 3: Liquid mixture of 100 μM adenosine and 1.25 μM phytosphingosine
A 24-well plate was seeded with human dermal papilla cells so as to obtain 6×10^3 thereof per well. […] The GAPDH gene was used as an internal standard, the amount of VEGF gene expression being calculated relative to the negative control group. […]
300 μL of lysis buffer RL was added thereto per well, and the cells were lysed by pipetting. […] Concentration of the recovered RNA was measured using a NanoDrop Lite (Catalog No. ND-LITE; Thermo Fisher Scientific K.K.), and this was stored at −80° C. until the following cDNA creation procedure.
A FastGene scriptase II cDNA synthesis 5× Ready Mix (Catalog No. NE-LS64; Nippon Genetics Co., Ltd. (Japan)) was used to synthesize cDNA. Dilution with RNase Free Water was carried out so as to cause concentration of total RNA produced in a new tube to be […], 4 μL of FastGene scriptase II cDNA synthesis 5× Ready Mix was added to 16 μL of this sample solution, and this was agitated by vortexing. […]

[2] = system: vascular endothelial growth factor (VEGF) expression in human dermal papilla cells; details: cited from earlier work

SMILES | change in amount of expression of the VEGF gene [1] | expression of vascular endothelial growth factor (VEGF) [2]
CCCCCCCCCCCCCC[C@@H](O)[C@@H](O)[C@@H](N)CO [Working Example 2, phytosphingosine] | increase in dosage-dependent fashion in the amount of expression of the VEGF gene as compared with the control group | –
CCCCCCCCCCCCCC[C@@H](O)[C@@H](O)[C@@H](N)CO [phytosphingosine] | significantly greater than that which was produced as a result of action of adenosine | –
CCCCCCCCCCCCCC[C@@H](O)[C@@H](O)[C@@H](N)CO [Working Example 1, phytosphingosine] | increase in dosage-dependent fashion in the amount of expression of the VEGF gene as compared with the control group | –
Nc1ncnc2c1ncn2[C@@H]1O[C@H](CO)[C@@H](O)[C@H]1O [adenosine] | – | promotes expression of vascular endothelial growth factor (VEGF)
